Like-named read-outs stand apart in the source and are kept apart here.
How the values were obtained:
[1] = system: P. viticola cellulose synthase 2 (PvCesA2), cytoplasmic portion aa 331 to 790; type: binding, Plasmopara viticola; conditions: growth on selective media lacking adenine or histidine, 10 mM 3-AT; sequence found at least three times among 30 colonies
Plasmopara viticola [2] = type: cell-based; conditions: 5 and 7 dpi; for effect on P. viticola disease severity on leaf disks: 200 μM peptide co-inoculated with sporangia, Pinot noir leaf disks, ten replicates from two experiments
Escherichia coli = type: cell-based; conditions: 100 μM and 200 μM in LB medium, 37 °C, OD600 every hour for 5 h, three biological replicates
Phytophthora infestans = type: cell-based; conditions: 100 μM and 200 μM in pea agar medium, 20 °C, radial growth at 4, 5 and 7 dpi
HKC8 cells = conditions: 400 μM, HKC8 at 1 K, 3 K and 6 K cells/100 μl, four biological replicates
[3] = system: Agrobacterium tumefaciens; type: cell-based; conditions: 100 μM and 200 μM in LB medium, 28 °C, OD600 every hour for 5 h, three biological replicates
[4] = system: Plasmopara viticola zoospores; type: cell-based; conditions: 200 μM, leaf disks, 6 h in the dark at 22 °C, SEM
Erysiphe necator = type: cell-based; conditions: 200 μM and 400 μM, young grapevine leaves, 14 dpi
[5] = system: Pinot noir leaves, photosystem II; conditions: grapevine leaves, 7 days after treatment, average ± SD of 3 measurements
Plasmopara viticola [6] = type: cell-based
[7] = system: Bacillus amyloliquefaciens (subsp. plantarum) strain D 747; type: cell-based; conditions: 100 μM and 200 μM in LB medium, 37 °C, OD600 every hour for 5 h, three biological replicates
Plasmopara viticola [8] = type: in vivo; conditions: for disease severity of plants: average ± standard error

Substance: H-LFPFVSSM-OH [NoPv2, 8 a.a. peptide aptamer identified by yeast two-hybrid assay using PvCesA2 as bait]
- peptide aptamers interacting with PvCesA2 (yeast two-hybrid library screening) [1]: interacting with PvCesA2
- effect on P. viticola disease severity on leaf disks (Plasmopara viticola [2]): intermediate

Substance: H-MLLHSELC-OH [NoPv3, 8 a.a. peptide aptamer identified by yeast two-hybrid assay using PvCesA2 as bait]
- peptide aptamers interacting with PvCesA2 (yeast two-hybrid library screening) [1]: interacting with PvCesA2
- effect on P. viticola disease severity on leaf disks (Plasmopara viticola [2]): no effect

Substance: H-RLTAQCRL-OH [NoPv1, peptide aptamer of 8 L-amino acid residues, RLTAQCRL, isolated with PvCesA2 as bait]
- growth inhibition of E. coli (Escherichia coli): not able to inhibit the growth
- inhibition of P. infestans growth in vitro (Phytophthora infestans): able to inhibit P. infestans growth in vitro
- cell viability (MTT, absorbance at 570 nm) vs control (HKC8 cells; DMEM-F12, 24 h): No significant differences between control and treated samples
- cell viability (MTT, absorbance at 570 nm) vs control (HKC8 cells; DMEM-F12, 48 h): cytotoxic effects could only be observed at 1 K cell density
- growth inhibition of A. tumefaciens [3]: not able to inhibit the growth
- zoospores in which a germ tube primordium could be detected ([4]; 5 zoospores out of 160): 3.12%
- P. viticola germ tube formation ([4]; n = 160): unable to develop any germ tube
- peptide aptamers interacting with PvCesA2 (yeast two-hybrid library screening) [1]: interacting with PvCesA2
- effect on E. necator disease severity on leaves (Erysiphe necator): not able to reduce the disease severity on leaves
- effect on P. viticola disease severity on leaf disks (Plasmopara viticola [2]): completely inhibit
- anti-oomycete activity on leaf disks (Plasmopara viticola [2]; co-inoculation, 20 μM): no anti-oomycete activity
- P. viticola disease severity on leaf disks (Plasmopara viticola [2]; co-inoculation, 50 μM): almost half of the control sample
- percentage of leaf disk area covered by P. viticola sporulation (Plasmopara viticola [2]; co-inoculation, concentrations equal or higher than 100 μM): below 10%
- FV/FM, maximum quantum yield of photosystem II ([5]; 400 µM (P1)): 0.73 ± 0.01
- Y(II), effective quantum yield of photosystem II ([5]; 400 µM (P1)): 0.33 ± 0.02
- FV/FM, maximum quantum yield of photosystem II ([5]; 1 mM (P2)): 0.74 ± 0.01
- Y(II), effective quantum yield of photosystem II ([5]; 1 mM (P2)): 0.33 ± 0.01
- treatment efficacy, preventive application (Plasmopara viticola [6]; 400 μM applied 7 days before inoculation (-7 d), leaf disks): effective in suppressing P. viticola infection
- treatment efficacy, post-inoculation (curative) application (Plasmopara viticola [6]; 400 μM applied +1 h to +2 d after P. viticola inoculation, leaf disks): efficacy decreased very rapidly
- Disease severity (Plasmopara viticola [6]; 400 μM sprayed +1 h after inoculation, leaf disks, 7 dpi, mean of ten replicates): 18.00%
- Disease severity (Plasmopara viticola [6]; 400 μM sprayed +1 d after inoculation, leaf disks, 7 dpi, mean of ten replicates): 23.76%
- Disease severity (Plasmopara viticola [6]; 400 μM sprayed +2 d after inoculation, leaf disks, 7 dpi, mean of ten replicates): 36.00%
- Disease severity (Plasmopara viticola [6]; 400 μM sprayed -2 h before inoculation, leaf disks, 7 dpi, mean of ten replicates): 1.58%
- Disease severity (Plasmopara viticola [6]; 400 μM sprayed -6 h before inoculation, leaf disks, 7 dpi, mean of ten replicates): 5.62%
- Disease severity (Plasmopara viticola [6]; 400 μM sprayed -1 d before inoculation, leaf disks, 7 dpi, mean of ten replicates): 6.17%
- Disease severity (Plasmopara viticola [6]; 400 μM sprayed -2 d before inoculation, leaf disks, 7 dpi, mean of ten replicates): 3.96%
- Disease severity (Plasmopara viticola [6]; 400 μM sprayed -5 d before inoculation, leaf disks, 7 dpi, mean of ten replicates): 2.23%
- Disease severity (Plasmopara viticola [6]; 400 μM sprayed -7 d before P. viticola inoculation, leaf disks, 7 dpi, mean of ten replicates from two experiments): 9.72%
- P. viticola severity on leaf disks after nebulization (Plasmopara viticola [6]; 400 μM, Potter Precision Spray Tower, 7 dpi): reduction of P. viticola severity
- Disease severity (Plasmopara viticola [6]; 400 μM, co-inoculation 0 h, leaf disks, 7 dpi, mean of ten replicates): 2.88%
- efficacy on leaf disks after nebulization compared with copper fungicide (Plasmopara viticola [6]; 800 μM vs Kocide 2000 1.42 g l^-1, Potter Precision Spray Tower): as effective as the copper-based fungicide Kocide 2000
- lowest concentration that maximises the efficacy against P. viticola (Plasmopara viticola [6]; nebulization on leaf disks, Potter Precision Spray Tower): 400 µM
- growth inhibition of B. amyloliquefaciens [7]: not able to inhibit the growth
- disease severity of plants (Plasmopara viticola [8]; 400 μM sprayed immediately before P. viticola inoculation, greenhouse Pinot noir plants): 27.3 ± 5.2%
- disease severity of plants (Plasmopara viticola [8]; 800 μM sprayed immediately before P. viticola inoculation, greenhouse plants): 26.2 ± 4.2%
- NoPv1 efficacy compared to control plants (Plasmopara viticola [8]; 1 mM applied at -7 d, -2 d and 0 h, greenhouse plants, 7 dpi): higher than 60%
- Disease severity (Plasmopara viticola [8]; 1 mM sprayed -7 d before inoculation, greenhouse plants, 7 dpi, mean of ten replicates from two experiments): 15.89%
- disease severity of plants (Plasmopara viticola [8]; 1 mM sprayed immediately before P. viticola inoculation, greenhouse plants): 20.8 ± 2.4%
- disease severity of plants (Plasmopara viticola [8]; 2 mM sprayed immediately before P. viticola inoculation, greenhouse plants): 21.1 ± 4.2
- lowest concentration showing a P. viticola severity comparable to the copper treatment (Plasmopara viticola [8]; greenhouse plants, sprayed immediately before inoculation): 1 mM

Source: publication PMC7567880 (Scientific Reports, 2020)
